Measurements as given in patent US6506393B2, “Methods of treating protozoal diseases” (Zentaris AG, priority 1991, dated 2003).
≈ marks a conversion by molar mass, not a printed value. Entries after “also recorded” stand apart in the source; their conditions may differ.

What was measured:
L. donovani [1] = assay: Effect of leishmaniasis drugs on the number of pathogens in liver and spleen of rats infected with L. donovani (Examples 39, 40); type: in vivo; details: for Relative effectiveness (pathogens per liver after Pentostam therapy divided by pathogens/liver after addition of test substance) / Pathogens per liver (in millions): orally 5 × 20 mg/kg/week for 3 weeks; for Pathogens per liver (in millions): rats infected with L. donovani, microscopic analysis
Experimental: Effect of various leishmaniasis drugs on the presence of pathogens in the liver of experimental animals (rats) infected with L. donovani.
The compounds according to the present invention and Et18OCH3 were administered orally while Pentostam was administered intravenously.
The number of pathogens per liver was determined by microscopic analysis.
The experimental procedure was as described in example 39.

L. donovani [2] = assay: as above; type: in vivo; details: for Pathogens per spleen (in millions): 3 week period of therapy; for Relative effectiveness (pathogens per spleen after Pentostam therapy divided by pathogens/spleen after addition of test substance): procedure as in example 39 (orally 5 × 20 mg/kg/week for 3 weeks)
[3] = tested on: three strains of Leishmania (L. donovani MHOM/IN/54LRC-L.51; L. donovani MHOM/IN/80/DDS and L. infantum MHOM/ES/86/STI-172); assay: Effect on pathogens in vivo: parasite burden in liver and spleen of infected Balb/c mice (Example 42)
Experimental: Several compounds of the invention were tested against three strains of Leishmania (L. donovani MHOM/IN/54LRC-L.51; L. donovani MHOM/IN/80/DDS and L. infantum MHOM/ES/86/STI-172). All strains were isolated from patients with visceral leishmaniasis. Before use for experiments, the strains were passed through Balb/c mice by intravenous injection.
Balb/c mice were infected by intravenous injection of a mixture of 10^7 promastigotes from stationary growth phase and 10^7 amastigotes which were isolated from the liver or spleen of leishmania-infected mice. Oral treatment with the compounds of the invention was initiated on day 7, at which time the mean parasitic burden was 100 to 200×10^6 amastigotes per liver, 1 to 2×10^6 per spleen and 3 to 6 amastigotes per microscopic field of 100 hematopoietic cells in bone marrow.
Parasite burden in spleen and liver were determined in GIEMSA's stained impression smears from cut sections by counting the number of amastigotes per 1000 spleen or liver nuclei. The total number of amastigotes per organ was calculated according to Stauber et al. (J. Protozool. 5:269-273 (1958)). Parasite suppression (parasite burden of drug treated mice to parasite burden of untreated mice) and parasite killing (parasite burden at the end of treatment to parasite burden at the start of treatment) were calculated according to Baumann et al. (Antimicrob. Agents Chemother. 35:1403-1407 (1991)) for all strains on day 14, for the strain LRC-L.51 in addition on days 21, 25 and 35 post-infectionem. The parasite burden in the bone marrow was examined on days 7 and 35 post-infectionem (strain LRC-L.51).
Table V summarizes the in vivo treatment results of several compounds of the invention in the liver and the spleen of treated mice. […] However, it is clear from the Table that the compounds of the invention produced much better results.

[4] = tested on: L. donovani strain MHOM/IN/54LRC-L.51 promastigotes; assay: Effect on pathogens in vitro: promastigote culture, 96 hours, counting chamber (Example 41); type: cell-based; details: 96 hours of incubation, 26° C., mean and SD of 3 experiments; for IC50: Leishmania donovani
Experimental: Several compounds of the invention were tested against L. donovani strain MHOM/IN/54LRC-L.51, isolated from a patient with visceral leishmaniasis. Before use for experiments, the strain was passed through Balb/c mice by intravenous injection.
Promastigotes were cultured in vitro in a mixed medium consisting of one part of HOSMEM and one part of RPMI-1640 (Gibco 041-02400) supplemented with 10% heat-inactivated fetal bovine serum (Gibco 011-06290) at 26° C. Cultures were maintained by seeding 5×10^6 promastigotes from 4-day-old cultures into 10 ml fresh medium. The promastigotes were cultured in 24-well-multiplates. After 96 hours of incubation in control or drug-containing media, the number of promastigotes was determined in a Neubauer counting chamber. The 50% inhibitory concentration was calculated graphically. The data is representative of the mean and SD values of 3 different experiments.

[5] = in vivo, sc; cited from earlier work
Leishmania = assay: Four-week treatment period of Leishmania-infected mice (Example 43); type: in vivo
Description: In a further experiment, hexadecylphosphocholine was investigated in more detail.

[6] = procedure as in example 39 (orally 5 × 20 mg/kg/week)

Row | IC50 [4] [µg/mL] | IC50 Value [4] [µg/mL] | Compound | Pathogens per liver (in millions) (L. donovani [1]) [millions] | Pathogens per spleen (in millions) (L. donovani [2]; [6]) [millions] | Relative effectiveness (pathogens per spleen after Pentostam therapy divided by pathogens/spleen after addition of test substance) (L. donovani [2]) | Parasites (× 10^6) Liver ([3]; oral treatment, dose 20 mg/kg) | Parasites (× 10^6) Spleen ([3]; oral treatment, dose 20 mg/kg) | also measured
1 | 2.07 ± 0.23 (≈ 5.08 µM) | – | CCCCCCCCCCCCCCCCOP(=O)([O-])OCC[N+](C)(C)C [Example 1, Hexadecylphosphocholine] | 0.1 | 0.01 | – | 0.07 × 10^6 | 0.008 × 10^6 | Parasites microscopically detectable in the liver and in the spleen (L. donovani [1]; additional experiments, single oral dose of 200 mg): no longer microscopically detectable; Toxicity for the experimental animals, in particular for macrophages [5]: highly toxic; Spleen Weight (Leishmania; Leishmania-infected mice, 10 mg (oral)): 150 mg; Reduction of parasites in the spleen (Leishmania; spleen, oral treatment with 20 mg/kg): more than three log rank reduction of parasites; Parasites microscopically detectable (L. donovani [2]; several additional experiments (Example 40, spleen), single oral dose of 200 mg): no longer microscopically detectable
2 | 0.8 ± 0.2 (≈ 1.84 µM) | – | CCCCCCCCCCCCCCCCCCOP(=O)([O-])OCC[N+](C)(C)C [Example 2, Octadecylphosphocholine] | 0.1 | 0.01 | 630.0 | 0.07 × 10^6 | 0.015 × 10^6 | Relative effectiveness (pathogens per liver after Pentostam therapy divided by pathogens/liver after addition of test substance) (L. donovani [1]): 32.0
3 | 0.41 ± 0.14 (≈ 0.946 µM) | – | CCCCCCCC/C=C/CCCCCCCCOP(=O)([O-])OCC[N+](C)(C)C [Example 4, Elaidylphosphocholine] | – | – | – | 28 × 10^6 | 0.02 × 10^6 | –
4 | – | 3.59 ± 0.19 (≈ 7.78 µM) | CCCCCCCCCCCCCCCCCCOP(=O)([O-])OCC[N+]1(C)CCCC1 [Example 19, Octadecylphospho-(N-methyl)-pyrrolidino-ethyl ester] | – | – | – | 22 × 10^6 | 0.035 × 10^6 | –
5 | – | 2.80 ± 0.50 (≈ 6.06 µM) | CCCCCCCC/C=C\CCCCCCCCOP(=O)([O-])OCC[N+](C)(CC)CC [Example 20, Oleylphospho-(N.N-diethyl-N-methyl)-ethanolamine] | – | – | – | 55 × 10^6 | 3.8 × 10^6 | –
6 | – | 0.66 ± 0.24 (≈ 1.39 µM) | CCCCCCCC/C=C\CCCCCCCCOP(=O)([O-])OCC[N+](CC)(CC)CC [cis-9-octadecenylphospho-(N,N-diethyl,N-ethylamino)ethanol] | – | – | – | 6 × 10^6 | 0.03 × 10^6 | –

The next lines start with the compound.

Row | Compound | IC50 [4] [µg/mL] | IC50 Value [4] [µg/mL] | Pathogens per liver (in millions) (L. donovani [1]) [millions] | Pathogens per spleen (in millions) (L. donovani [2]; [6]) [millions] | Relative effectiveness (pathogens per spleen after Pentostam therapy divided by pathogens/spleen after addition of test substance) (L. donovani [2]) | Parasites (× 10^6) Liver ([3]; oral treatment, dose 20 mg/kg) | Parasites (× 10^6) Spleen ([3]; oral treatment, dose 20 mg/kg) | also measured
7 | CCCCCCCCCCCCCCCCCCOCC(COP(=O)([O-])OCC[N+](C)(C)C)OC (racemic) [Et18OCH3, 1-octadecyl-2-methyl-rac-glycero-3-phosphocholine, reference compound] | – | – | 424.7 | 6.5 | 0.9 | – | – | Relative effectiveness (pathogens per liver after Pentostam therapy divided by pathogens/liver after addition of test substance) (L. donovani [1]): 0.007
8 | CCCCCCCC/C=C\CCCCCCCCOP(=O)([O-])OCC[N+](C)(C)CC [Example 7, Oleylphospho-(N.N-dimethyl-N-ethyl)ethanolamine] | – | – | 4.7 | 0.03 | 210.0 | – | – | Relative effectiveness (pathogens per liver after Pentostam therapy divided by pathogens/liver after addition of test substance) (L. donovani [1]; 20 mg/kg): 0.7; Relative effectiveness (pathogens per liver after Pentostam therapy divided by pathogens/liver after addition of test substance) (L. donovani [1]; listed as olely-phospho-(N.N-dimethyl-N-ethyl)ethanolamine, 20 mg/kg): comparable effect to Pentostam
9 | O.O.O.O.O.O.O.O.O.O=C([O-])[C@@H]1[O][Sb]2([O-])([O][Sb]34([OH])[O][C@H]([C@H](O)CO)[C@H]([O]3)[C@H](C(=O)[O-])[O]4)[O][C@H]([C@H](O)CO)[C@@H]1[O]2.[Na+].[Na+].[Na+] [Pentostam, sodium stibogluconate, reference compound] | – | – | – | – | – | – | – | Parasites (× 10^6) Liver ([3]; Pentostam, dose 120 mg/kg): significantly reduced the parasite burden; Parasites (× 10^6) Spleen ([3]; Pentostam, dose 120 mg/kg): significantly reduced the parasite burden; Suppression of parasite growth in the spleen compared to control mice (Leishmania; spleen, Pentostam): only a moderate suppression of parasite growth; Pathogens per spleen (in millions) (L. donovani [2]; procedure as in example 39 (Pentostam iv. 5 × 120 mg/kg/week), 120 mg/kg): weak effect; also recorded: extremely low effectiveness
10 | octadecylphosphoethanol-(N-methyl)piperidine | – | 4.90 ± 0.50 | – | – | – | 65 × 10^6 | 0.35 × 10^6 | –
